Assay results published in PubChem BioAssay AID2060497 (Molecular Pharmacology Branch, DTP, NCI, 2025).

System: 317291-083-R-J1-PDC complex spheroids, viability
Assay: Anticancer human tumor 317291-083-R-J1-PDC patient-derived soft tissue sarcoma cell line growth inhibition [GQUAD]
Details: for IC50: curve of first compound; for viability, T/C: stronger effect = lower value
How it was run: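 Tumor cells were grown as complex spheroids with HUVEC endothelial cells and mesenchymal stem cells as stroma. G-quadruplex stabilizers were combined with targeted agents over half-log dilutions from near the clinical Cmax, or from 10 microM.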

[1] = second compound 0.0316 µM, first compound 0.0316 µM
[2] = second compound 0.0316 µM, first compound 0.1 µM
[3] = second compound 0.0316 µM, first compound 0.316 µM
[4] = second compound 0.0316 µM, first compound 1 µM
[5] = second compound 0.0316 µM, first compound 3.16 µM
[6] = second compound 0.0316 µM, first compound 10 µM
[7] = second compound 0.1 µM, first compound 0.0316 µM
[8] = second compound 0.1 µM, first compound 0.1 µM
[9] = second compound 0.1 µM, first compound 0.316 µM
[10] = second compound 0.1 µM, first compound 1 µM
[11] = second compound 0.1 µM, first compound 3.16 µM
[12] = second compound 0.1 µM, first compound 10 µM
[13] = second compound 0.316 µM, first compound 0.0316 µM
[14] = second compound 0.316 µM, first compound 0.1 µM
[15] = second compound 0.316 µM, first compound 0.316 µM
[16] = second compound 0.316 µM, first compound 1 µM
[17] = second compound 0.316 µM, first compound 3.16 µM
[18] = second compound 0.316 µM, first compound 10 µM
[19] = second compound 1 µM, first compound 0.0316 µM
[20] = second compound 1 µM, first compound 0.1 µM
[21] = second compound 1 µM, first compound 0.316 µM
[22] = second compound 1 µM, first compound 1 µM
[23] = second compound 1 µM, first compound 3.16 µM
[24] = second compound 1 µM, first compound 10 µM
[25] = second compound 3.16 µM, first compound 0.0316 µM
[26] = second compound 3.16 µM, first compound 0.1 µM
[27] = second compound 3.16 µM, first compound 0.316 µM
[28] = second compound 3.16 µM, first compound 1 µM
[29] = second compound 3.16 µM, first compound 3.16 µM
[30] = second compound 3.16 µM, first compound 10 µM
[31] = second compound 10 µM, first compound 0.0316 µM
[32] = second compound 10 µM, first compound 0.1 µM
[33] = second compound 10 µM, first compound 0.316 µM
[34] = second compound 10 µM, first compound 1 µM
[35] = second compound 10 µM, first compound 3.16 µM
[36] = second compound 10 µM, first compound 10 µM
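Also: spheroids exposed to compounds for one week before readout.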
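For viability, T/C in this document: percent viability relative to DMSO vehicle wells taken as 100%.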

## C#Cc1c(F)ccc2cc(O)cc(-c3ncc4c(N5CC6CCC(C5)N6)nc(OCC56CCCN5CC(F)C6)nc4c3F)c12 (stereo not drawn) + Cc1[nH]c2ccc(F)cc2c1-c1nc2c3cccnc3c3ncccc3c2[nH]1
Second compound 0.0316 µM
  IC50: 6330 nM
Second compound 0.1 µM
  IC50: 5600 nM
Second compound 0.316 µM
  IC50: 4530 nM
Second compound 1 µM
  IC50: 3280 nM
Second compound 3.16 µM
  IC50: < 31.6 nM
Second compound 10 µM
  IC50: 1360 nM
[1]
  viability, T/C: 109%
[2]
  viability, T/C: 92.8%
[3]
  viability, T/C: 97.8%
[4]
  viability, T/C: 99%
[5]
  viability, T/C: 82.2%
[6]
  viability, T/C: 28.6%
[7]
  viability, T/C: 90.9%
[8]
  viability, T/C: 106%
[9]
  viability, T/C: 94.9%
[10]
  viability, T/C: 108%
[11]
  viability, T/C: 75.6%
[12]
  viability, T/C: 23.9%
[13]
  viability, T/C: 80.3%
[14]
  viability, T/C: 58.9%
[15]
  viability, T/C: 79.3%
[16]
  viability, T/C: 59.2%
[17]
  viability, T/C: 72.5%
[18]
  viability, T/C: 6%
[19]
  viability, T/C: 66.5%
[20]
  viability, T/C: 52.8%
[21]
  viability, T/C: 64.2%
[22]
  viability, T/C: 54.2%
[23]
  viability, T/C: 52.5%
[24]
  viability, T/C: 3%
[25]
  viability, T/C: 46.6%
[26]
  viability, T/C: 36.7%
[27]
  viability, T/C: 35.3%
[28]
  viability, T/C: 33.7%
[29]
  viability, T/C: 35.2%
[30]
  viability, T/C: 0.12%
[31]
  viability, T/C: 47.8%
[32]
  viability, T/C: 60.2%
[33]
  viability, T/C: 55.2%
[34]
  viability, T/C: 52.9%
[35]
  viability, T/C: 42%
[36]
  viability, T/C: 0.16%

## C=CCn1c(=O)c2cnc(Nc3ccc(N4CCN(C)CC4)cc3)nc2n1-c1cccc(C(C)(C)O)n1 + Cc1[nH]c2ccc(F)cc2c1-c1nc2c3cccnc3c3ncccc3c2[nH]1
Second compound 0.0316 µM
  IC50: 119 nM
Second compound 0.1 µM
  IC50: 137 nM
Second compound 0.316 µM
  IC50: 58 nM
Second compound 1 µM
  IC50: 39.5 nM
Second compound 3.16 µM
  IC50: < 31.6 nM
Second compound 10 µM
  IC50: < 31.6 nM
[1]
  viability, T/C: 80.5%
[2]
  viability, T/C: 55.3%
[3]
  viability, T/C: 21.7%
[4]
  viability, T/C: 17.8%
[5]
  viability, T/C: 8.57%
[6]
  viability, T/C: 9.56%
[7]
  viability, T/C: 87%
[8]
  viability, T/C: 59.7%
[9]
  viability, T/C: 24.4%
[10]
  viability, T/C: 12.8%
[11]
  viability, T/C: 12%
[12]
  viability, T/C: 11.9%
[13]
  viability, T/C: 61.1%
[14]
  viability, T/C: 40.1%
[15]
  viability, T/C: 17.3%
[16]
  viability, T/C: 11.3%
[17]
  viability, T/C: 10.9%
[18]
  viability, T/C: 8.81%
[19]
  viability, T/C: 56%
[20]
  viability, T/C: 25%
[21]
  viability, T/C: 15.8%
[22]
  viability, T/C: 7.15%
[23]
  viability, T/C: 8.02%
[24]
  viability, T/C: 10.3%
[25]
  viability, T/C: 25.2%
[26]
  viability, T/C: 12.5%
[27]
  viability, T/C: 9.21%
[28]
  viability, T/C: 5.63%
[29]
  viability, T/C: 8.76%
[30]
  viability, T/C: 6.68%
[31]
  viability, T/C: 33.5%
[32]
  viability, T/C: 21.5%
[33]
  viability, T/C: 13.4%
[34]
  viability, T/C: 9.85%
[35]
  viability, T/C: 8.36%
[36]
  viability, T/C: 9.58%

## CC(C)(O)C1CCC(Nc2ccc3ncc(-c4cccc(C(F)(F)F)c4)n3n2)CC1 (stereo not drawn) + Cc1[nH]c2ccc(F)cc2c1-c1nc2c3cccnc3c3ncccc3c2[nH]1
Second compound 0.0316 µM
  IC50: 647 nM
Second compound 0.1 µM
  IC50: 576 nM
Second compound 0.316 µM
  IC50: 421 nM
Second compound 1 µM
  IC50: 114 nM
Second compound 3.16 µM
  IC50: < 31.6 nM
Second compound 10 µM
  IC50: < 31.6 nM
[1]
  viability, T/C: 102%
[2]
  viability, T/C: 102%
[3]
  viability, T/C: 85.9%
[4]
  viability, T/C: 28.2%
[5]
  viability, T/C: 0.62%
[6]
  viability, T/C: 0.37%
[7]
  viability, T/C: 91%
[8]
  viability, T/C: 85%
[9]
  viability, T/C: 77.1%
[10]
  viability, T/C: 25.4%
[11]
  viability, T/C: 0.16%
[12]
  viability, T/C: 0.74%
[13]
  viability, T/C: 61.8%
[14]
  viability, T/C: 70.9%
[15]
  viability, T/C: 61.6%
[16]
  viability, T/C: 14.3%
[17]
  viability, T/C: 0.22%
[18]
  viability, T/C: 0.17%
[19]
  viability, T/C: 58.1%
[20]
  viability, T/C: 43%
[21]
  viability, T/C: 45.1%
[22]
  viability, T/C: 8.74%
[23]
  viability, T/C: 0.32%
[24]
  viability, T/C: 0.16%
[25]
  viability, T/C: 29.5%
[26]
  viability, T/C: 19.8%
[27]
  viability, T/C: 24.1%
[28]
  viability, T/C: 7.5%
[29]
  viability, T/C: 0.94%
[30]
  viability, T/C: 0.2%
[31]
  viability, T/C: 41%
[32]
  viability, T/C: 38.6%
[33]
  viability, T/C: 44.5%
[34]
  viability, T/C: 14.2%
[35]
  viability, T/C: 0.55%
[36]
  viability, T/C: 0.82%

## O=C(NO)c1cnc(N2CCN(S(=O)(=O)c3ccc4ccccc4c3)CC2)nc1 + Cc1[nH]c2ccc(F)cc2c1-c1nc2c3cccnc3c3ncccc3c2[nH]1
Second compound 0.0316 µM
  IC50: 153 nM
Second compound 0.1 µM
  IC50: 211 nM
Second compound 0.316 µM
  IC50: 113 nM
Second compound 1 µM
  IC50: 60.2 nM
Second compound 3.16 µM
  IC50: < 31.6 nM
Second compound 10 µM
  IC50: < 31.6 nM
[1]
  viability, T/C: 99.5%
[2]
  viability, T/C: 71.4%
[3]
  viability, T/C: 13.9%
[4]
  viability, T/C: 0.16%
[5]
  viability, T/C: 0.07%
[6]
  viability, T/C: 0.9%
[7]
  viability, T/C: 117%
[8]
  viability, T/C: 102%
[9]
  viability, T/C: 22.1%
[10]
  viability, T/C: 0.09%
[11]
  viability, T/C: 0.03%
[12]
  viability, T/C: 0.45%
[13]
  viability, T/C: 66.5%
[14]
  viability, T/C: 55.2%
[15]
  viability, T/C: 6.53%
[16]
  viability, T/C: 0.09%
[17]
  viability, T/C: 0.04%
[18]
  viability, T/C: 0.16%
[19]
  viability, T/C: 60.6%
[20]
  viability, T/C: 41.6%
[21]
  viability, T/C: 10.5%
[22]
  viability, T/C: 0.06%
[23]
  viability, T/C: 0.09%
[24]
  viability, T/C: 0.07%
[25]
  viability, T/C: 42.7%
[26]
  viability, T/C: 19.4%
[27]
  viability, T/C: 3.52%
[28]
  viability, T/C: 0.44%
[29]
  viability, T/C: 0.18%
[30]
  viability, T/C: 0.72%
[31]
  viability, T/C: 42.9%
[32]
  viability, T/C: 35.3%
[33]
  viability, T/C: 4.65%
[34]
  viability, T/C: 0.13%
[35]
  viability, T/C: 0.22%
[36]
  viability, T/C: 0.17%
